target: T1, Recombinant human EP300 containing the bromodomain (EP300-BD (1040-1161)) (Homo sapiens, UniProt Q09472); assay: EP300 Alphascreen binding assay
T1 construct: Recombinant human EP300 bromodomain (EP300-BD (1040-1161)); made in house; host or cells: E. coli BL21-CodonPlus (DE3), modified pET vector
T1 sequence (Q09472 1040-1161): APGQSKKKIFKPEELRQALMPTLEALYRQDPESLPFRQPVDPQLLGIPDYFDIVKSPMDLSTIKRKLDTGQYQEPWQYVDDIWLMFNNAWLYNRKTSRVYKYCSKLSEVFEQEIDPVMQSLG
In short: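 Displacement of a biotinylated acetyl-K56 histone H3 peptide from the N-His bromodomain construct (1040-1161) measured by AlphaScreen proximity, beads at 7.5 μg/ml final, read 60 min after addition. Protein, peptide and compound first incubated 1 h at room temperature, pH 7.5 HEPES buffer; IC50 by four-parameter logistic fit.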

| Compound | IC50 [nM] |
| --- | --- |
| COC(=O)c1cc(-c2cn(C(c3ccccn3)C3CCC3)c3ncc(-c4c(C)noc4C)cc23)ccn1 (centres unmarked) [P-0046, methyl 4-(1-(cyclobutyl(pyridin-2-yl)methyl)-5-(3,5-dimethylisoxazol-4-yl)-1H-pyrrolo[2,3-b]pyridin-3-yl)picolinate] | 0.1 to 1000 |
| Cc1noc(C)c1-c1cnc2c(c1)c(-c1c(Cl)cc(C(=O)O)cc1OC(F)(F)F)cn2-c1cccnn1 [P-0439, 3-chloro-4-(5-(3,5-dimethylisoxazol-4-yl)-1-(pyridazin-3-yl)-1H-pyrrolo[2,3-b]pyridin-3-yl)-5-(trifluoromethoxy)benzoic acid] | 0.1 to 1000 |
| Cc1noc(C)c1-c1cnc2c(c1)c(-c1ccc(C(=O)O)cc1OC(F)(F)F)cn2-c1ccc(C2CC2)nc1 [P-0388, 4-(1-(6-cyclopropylpyridin-3-yl)-5-(3,5-dimethylisoxazol-4-yl)-1H-pyrrolo[2,3-b]pyridin-3-yl)-3-(trifluoromethoxy)benzoic acid] | 0.1 to 1000 |
| Cc1noc(C)c1-c1cnc2c(c1)c(-c1cccc(C(=O)O)c1)cn2Cc1ccccn1 [P-0049, 3-(5-(3,5-dimethylisoxazol-4-yl)-1-(pyridin-2-ylmethyl)-1H-pyrrolo[2,3-b]pyridin-3-yl)benzoic acid] | 0.1 to 1000 |
| Cc1noc(C)c1-c1cnc2c(c1)c(-c1ccc(C(=O)O)cc1OC(F)(F)F)cn2C1CCC(C#N)C1 (centres unmarked) [P-0389, 4-(1-(3-cyanocyclopentyl)-5-(3,5-dimethylisoxazol-4-yl)-1H-pyrrolo[2,3-b]pyridin-3-yl)-3-(trifluoromethoxy)benzoic acid] | 0.1 to 1000 |
| Cc1noc(C)c1-c1cnc2c(c1)c(-c1c(Cl)cc(C(=O)O)cc1OCC(F)F)cn2-c1cnc(C2CC2)nc1 [P-0390, 3-chloro-4-(1-(2-cyclopropylpyrimidin-5-yl)-5-(3,5-dimethylisoxazol-4-yl)-1H-pyrrolo[2,3-b]pyridin-3-yl)-5-(2,2-difluoroethoxy)benzoic acid] | 0.1 to 1000 |
| CCOc1nc(C(=O)O)cc(C)c1-c1cn(C(C2CC2)C2CC2)c2ncc(-c3c(C)noc3C)cc12 [P-0417, 5-(1-(dicyclopropylmethyl)-5-(3,5-dimethylisoxazol-4-yl)-1H-pyrrolo[2,3-b]pyridin-3-yl)-6-ethoxy-4-methylpicolinic acid] | 0.1 to 1000 |
| Cc1noc(C)c1-c1cnc2c(c1)c(-c1ccnc(C(=O)O)c1C)cn2C1CCOCC1 [P-0419, 4-(5-(3,5-dimethylisoxazol-4-yl)-1-(tetrahydro-2H-pyran-4-yl)-1H-pyrrolo[2,3-b]pyridin-3-yl)-3-methylpicolinic acid] | 0.1 to 1000 |
| Cc1noc(C)c1-c1cnc2c(Cc3ccccc3)cn(-c3ccnc(C(=O)O)c3)c2c1 [P-0053, 4-(3-benzyl-6-(3,5-dimethylisoxazol-4-yl)-1H-pyrrolo[3,2-b]pyridin-1-yl)picolinic acid] | 0.1 to 1000 |
| Cc1noc(C)c1-c1cnc2c(C(=O)c3ccccc3)cn(-c3ccnc(C(=O)O)c3)c2c1 [P-0054, 4-(3-benzoyl-6-(3,5-dimethylisoxazol-4-yl)-1H-pyrrolo[3,2-b]pyridin-1-yl)picolinic acid] | 0.1 to 1000 |
| Cc1noc(C)c1-c1cnc2c(c1)c(-c1cccc(C(=O)O)c1)cn2Cc1ccccc1 [P-0048, 3-(1-benzyl-5-(3,5-dimethylisoxazol-4-yl)-1H-pyrrolo[2,3-b]pyridin-3-yl)benzoic acid] | 0.1 to 1000 |
| Cc1noc(C)c1-c1cnc2c(c1)c(-c1c(Cl)cc(C(=O)O)cc1OC1CCC1)cn2-c1cnc(C2CC2)nc1 [P-0391, 3-chloro-5-cyclobutoxy-4-(1-(2-cyclopropylpyrimidin-5-yl)-5-(3,5-dimethylisoxazol-4-yl)-1H-pyrrolo[2,3-b]pyridin-3-yl)benzoic acid] | 0.1 to 1000 |
| Cc1noc(C)c1-c1cnc2c(c1)c(-c1c(Cl)cc(C(=O)O)cc1OC(C)C)cn2C1(C)CCOCC1 [P-0404, 3-chloro-4-(5-(3,5-dimethylisoxazol-4-yl)-1-(4-methyltetrahydro-2H-pyran-4-yl)-1H-pyrrolo[2,3-b]pyridin-3-yl)-5-isopropoxybenzoic acid] | 0.1 to 1000 |
| CCOc1nc(C(=O)O)cc(C)c1-c1cn(C2CCOCC2)c2ncc(-c3c(C)noc3C)cc12 [P-0411, 5-(5-(3,5-dimethylisoxazol-4-yl)-1-(tetrahydro-2H-pyran-4-yl)-1H-pyrrolo[2,3-b]pyridin-3-yl)-6-ethoxy-4-methylpicolinic acid] | 0.1 to 1000 |
| CCOc1cc(C(=O)O)nc(OCC)c1-c1cn(-c2ccccc2F)c2ncc(-c3c(C)noc3C)cc12 [P-0414, 5-(5-(3,5-dimethylisoxazol-4-yl)-1-(2-fluorophenyl)-1H-pyrrolo[2,3-b]pyridin-3-yl)-4,6-diethoxypicolinic acid] | 0.1 to 1000 |
| Cc1noc(C)c1-c1cnc2c(c1)c(-c1c(Cl)cc(C(=O)O)cc1OC(F)(F)F)cn2-c1ccc(C2CC2)nc1 [P-0441, 3-chloro-4-(1-(6-cyclopropylpyridin-3-yl)-5-(3,5-dimethylisoxazol-4-yl)-1H-pyrrolo[2,3-b]pyridin-3-yl)-5-(trifluoromethoxy)benzoic acid] | 0.1 to 1000 |
| Cc1noc(C)c1-c1cnc2c(c1)c(-c1ccnc(C(=O)O)c1)cn2CC1CC1 [P-0045, 4-(1-(cyclopropylmethyl)-5-(3,5-dimethylisoxazol-4-yl)-1H-pyrrolo[2,3-b]pyridin-3-yl)picolinic acid] | 0.1 to 1000 |
| Cc1noc(C)c1-c1cnc2c(c1)c(-c1ccnc(C(=O)O)c1)cn2C(c1ccccn1)C1CCC1 (centres unmarked) [P-0043, 4-(1-(cyclobutyl(pyridin-2-yl)methyl)-5-(3,5-dimethylisoxazol-4-yl)-1H-pyrrolo[2,3-b]pyridin-3-yl)picolinic acid] | 0.1 to 1000 |
| Cc1noc(C)c1-c1cnc2c(c1)c(-c1c(Cl)cc(C(=O)O)cc1OC(F)(F)F)cn2-c1ncccc1C#N [P-0395, 3-chloro-4-(1-(3-cyanopyridin-2-yl)-5-(3,5-dimethylisoxazol-4-yl)-1H-pyrrolo[2,3-b]pyridin-3-yl)-5-(trifluoromethoxy)benzoic acid] | 0.1 to 1000 |
| CCOc1cc(C(=O)O)nc(OCC)c1-c1cn(C(C2CC2)C2CC2)c2ncc(-c3c(C)noc3C)cc12 [P-0420, 5-(1-(dicyclopropylmethyl)-5-(3,5-dimethylisoxazol-4-yl)-1H-pyrrolo[2,3-b]pyridin-3-yl)-4,6-diethoxypicolinic acid] | 0.1 to 1000 |
| CCOc1cc(C(=O)O)c(F)cc1-c1cn(C2CCN(C(=O)OC(C)(C)C)CC2)c2ncc(-c3c(C)noc3C)cc12 [P-0442, 4-(1-(1-(tert-butoxycarbonyl)piperidin-4-yl)-5-(3,5-dimethylisoxazol-4-yl)-1H-pyrrolo[2,3-b]pyridin-3-yl)-5-ethoxy-2-fluorobenzoic acid] | 0.1 to 1000 |
| Cc1noc(C)c1-c1cnc2c(c1)c(-c1cnn(CC(=O)O)c1)cn2C(c1ccccn1)C1CCCC1 (centres unmarked) [P-0036, 2-(4-(1-(cyclopentyl(pyridin-2-yl)methyl)-5-(3,5-dimethylisoxazol-4-yl)-1H-pyrrolo[2,3-b]pyridin-3-yl)-1H-pyrazol-1-yl)acetic acid] | 0.1 to 1000 |
| CCOc1nc(C(=O)O)cc(C)c1-c1cn(-c2ccc(F)cc2F)c2ncc(-c3c(C)noc3C)cc12 [P-0412, 5-(1-(2,4-difluorophenyl)-5-(3,5-dimethylisoxazol-4-yl)-1H-pyrrolo[2,3-b]pyridin-3-yl)-6-ethoxy-4-methylpicolinic acid] | 0.1 to 1000 |

From US11446287B2, “Compounds and methods for EP300 or CBP modulation and indications therefor” (Opna Immuno-Oncology SA, priority 2019, dated 2022)
